# Active and inactive are the calls of the source. The rule behind the calls is not given here.
# Tests used:
# RAW264.7 [1] = experiment: Inhibition of LPS-induced NO production in mouse RAW264.7 cells at 20 uM preincubated for 2 hrs followed by LPS addition and measured after 24 hrs by Griess assay relative to control; type: functional; details: time 26 hrs
# [2] = Cytotoxicity against mouse RAW264.7 cells assessed as inhibition of cell viability by MTT assay relative to control; type: toxicity, cell-based
# [3] = Cytotoxicity against mouse RAW264.7 cells assessed as inhibition of cell viability at 20 uM by MTT assay relative to control; type: toxicity, cell-based; details: read-out: INH
# RAW264.7 [4] = experiment: Inhibition of LPS-induced NO production in mouse RAW264.7 cells preincubated for 2 hrs followed by LPS addition and measured after 24 hrs by Griess assay relative to control; type: functional, cell-based
# Mus musculus [5] = experiment: Antiinflammatory activity against MC093-induced atopic dermatitis BALB/c mouse model assessed as reduction in inflammatory cell infiltration in ear administered starting from day 4 to 10 after MC093-stimulation by H and E staining assay; type: functional, organism-based
# Mus musculus [6] = experiment: Antiinflammatory activity against MC093-induced atopic dermatitis BALB/c mouse model assessed as reduction in epidermal thickness of ear administered starting from day 4 to 10 after MC093-stimulation by H and E staining assay; type: functional, organism-based
Structure (SMILES),IC50 (RAW264.7 [4]) [µM],inhibition at 20 µM (RAW264.7 [1]) [%],IC50 [2] [µM],cytotoxicity at 20 µM [3] [%],Activity (Mus musculus [5]),Activity (Mus musculus [6])
C=C1CC[C@H]2C(=C)CC[C@H]3C(CN(CCNS(=O)(=O)c4ccc(F)cc4)S(=O)(=O)c4ccc(F)cc4)C(=O)O[C@@H]3[C@@H]12 (some centres not stated),15.2,75.1,> 40,9.81,,
C=C1CC[C@H]2C(=C)CC[C@H]3C(CN(CCNS(=O)(=O)c4ccc5ccccc5c4)S(=O)(=O)c4ccc5ccccc5c4)C(=O)O[C@@H]3[C@@H]12 (some centres not stated),16.6,76.8,> 40,8.58,,
C[C@@H]1C[C@H]2[C@@H]3CCC4=CC(=O)C=C[C@]4(C)[C@@]3(F)[C@@H](O)C[C@]2(C)[C@@]1(O)C(=O)CO [DEXAMETHASONE],11,,> 40,,Active,Active
C=C1CC[C@H]2C(=C)CC[C@H]3C(=C)C(=O)O[C@@H]3[C@@H]12 [DEHYDROCOSTUSLACTONE],21.5,40.3,> 40,17.3,,
C=C1CC[C@H]2C(=C)CC[C@H]3C(CN(CCNS(=O)(=O)c4cc(Cl)c(F)cc4F)S(=O)(=O)c4cc(Cl)c(F)cc4F)C(=O)O[C@@H]3[C@@H]12 (some centres not stated),12.9,68.1,> 40,10.4,,

# The next compounds have a lower IC50 (RAW264.7 [4]) than those just listed; values first:
IC50 (RAW264.7 [4]) [µM],Structure (SMILES),inhibition at 20 µM (RAW264.7 [1]) [%],IC50 [2] [µM],cytotoxicity at 20 µM [3] [%],Activity (Mus musculus [5]),Activity (Mus musculus [6])
7.72,C=C1CC[C@H]2C(=C)CC[C@H]3C(CN(CCNS(=O)(=O)c4ccc(C)cc4)S(=O)(=O)c4ccc(C)cc4)C(=O)O[C@@H]3[C@@H]12 (some centres not stated),82.5,> 40,14.8,,
5.13,C=C1CC[C@H]2C(=C)CC[C@H]3C(CNCCNS(=O)(=O)C4CC4)C(=O)O[C@@H]3[C@@H]12 (some centres not stated),85.4,> 40,12.2,,
10.2,C=C1CC[C@H]2C(=C)CC[C@H]3C(CNCCNCc4cc([N+](=O)[O-])ccc4O)C(=O)O[C@@H]3[C@@H]12 (some centres not stated),68.4,> 40,24.7,,

# Source: ChEMBL document CHEMBL5584329, “Development of new dehydrocostuslactone derivatives for treatment of atopic dermatitis via inhibition of the NF-κB signaling pathway” (RSC Med Chem, 2024)
